Assay results reported in BigSolDB 2.1.

Conditions: in ethyl acetate

CCCCCOC(=O)Nc1nc(=O)n([C@@H]2O[C@H](C)[C@@H](O)[C@H]2O)cc1F
Conditions | solubility (mole fraction)
278.15 K | 0.003
283.15 K | 0.0039
288.15 K | 0.0052
293.15 K | 0.00678
298.15 K | 0.00919
303.15 K | 0.0112
308.15 K | 0.0149
313.15 K | 0.019
318.15 K | 0.0237
323.15 K | 0.0301
